Each structure is given as a SMILES string.

The target in the first assay is T1, stearoyl-CoA desaturase (SCD) (Rattus norvegicus, UniProt P07308).
T1 construct: The microsomes were quickly thawed and added to assay buffer so that a concentration of 0.4 mg/ml was achieved; from tissue
T1 sequence (P07308 1-358): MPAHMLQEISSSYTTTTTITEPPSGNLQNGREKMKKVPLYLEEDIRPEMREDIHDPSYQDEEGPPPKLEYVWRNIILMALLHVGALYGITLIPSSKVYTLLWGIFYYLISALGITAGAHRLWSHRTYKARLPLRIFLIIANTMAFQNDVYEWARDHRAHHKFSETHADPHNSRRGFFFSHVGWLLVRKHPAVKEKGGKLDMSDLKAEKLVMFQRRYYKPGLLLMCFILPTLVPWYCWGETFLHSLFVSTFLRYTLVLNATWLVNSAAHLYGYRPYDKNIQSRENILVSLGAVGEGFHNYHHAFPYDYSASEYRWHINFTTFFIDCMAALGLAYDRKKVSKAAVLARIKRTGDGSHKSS
The experiment in a line: SCD assay with rat liver microsomes ([3H]stearoyl CoA, adapted from Talamo and Bloch). The assay is classed as biochemical. Conditions: Table 1; rat liver microsomes 0.2 mg/ml assay final, [3H]stearoyl CoA substrate, 30 min preincubation, 45 min reaction, room temperature. The procedure, abridged:
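Liver microsomes came from diet-induced male Sprague Dawley rats and were used at 0.2 mg/ml final. Assay buffer was Tris pH 7.2 with NADH, ATP, CoA, MgCl2 and 0.1% BSA. Compounds were preincubated 30 min, then reacted 45 min at room temperature with [3H]stearoyl-CoA; after TCA stop and Bio-Bead cleanup, supernatant radioactivity was counted by scintillation.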
By IC50 is commonly meant the midpoint of a concentration-inhibition curve. `Cc1ccc(OCC(=O)Nc2ccc3ncn(Cc4ccc(Cl)c(Cl)c4)c(=O)c3c2)cc1` [XXII, N-{3-[(3,4-dichlorophenyl)methyl]-4-oxo(3-hydroquinazolin-6-yl)}-2-(4-methylphenoxy)acetamide] had a concentration for half-maximal inhibition (IC50) of 5.7 µM.
On the same count and under the same terms, for `O=C(Nc1ccc2ncn(Cc3ccc(Cl)c(Cl)c3)c(=O)c2c1)OCc1cccnc1` [XXIII, N-{3-[(3,4-dichlorophenyl)methyl]-4-oxo(3-hydroquinazolin-6-yl)}(3-pyridylmethoxy)carboxamide] the value was 0.17 µM; for `O=C(Nc1ccc2ncn(Cc3ccc(F)cc3)c(=O)c2c1)OCc1ccccc1` [XXIV, N-{3-[(4-fluorophenyl)methyl]-4-oxo(3-hydroquinazolin-6-yl)}(phenylmethoxy)carboxamide], 0.3 µM.
The same measure, in the same setting: for `O=C(COc1ccccc1Cl)Nc1ccc2ncn(Cc3ccc(Cl)c(Cl)c3)c(=O)c2c1` [XXIX, N-{3-[(3,4-dichlorophenyl)methyl]-4-oxo(3-hydroquinazolin-6-yl)}-2-(2-chlorophenoxy)acetamide] the value was 1.98 µM.
In the case of `COc1ccccc1OCC(=O)Nc1ccc2ncn(Cc3ccc(Cl)c(Cl)c3)c(=O)c2c1` [XXV, N-{3-[(3,4-dichlorophenyl)methyl]-4-oxo(3-hydroquinazolin-6-yl)}-2-(2-methoxyphenoxy)acetamide], the IC50 was found to be 0.78 µM.
The molecule `O=C(COc1ccccc1F)Nc1ccc2ncn(Cc3ccc(Cl)c(Cl)c3)c(=O)c2c1` [XXVI, N-{3-[(3,4-dichlorophenyl)methyl]-4-oxo(3-hydroquinazolin-6-yl)}-2-(2-fluorophenoxy)acetamide] came in with an IC50 of 3.69 µM.
Take `O=C(COc1cccc(F)c1)Nc1ccc2ncn(Cc3ccc(Cl)c(Cl)c3)c(=O)c2c1` [XXVII, N-{3-[(3,4-dichlorophenyl)methyl]-4-oxo(3-hydroquinazolin-6-yl)}-2-(3-fluorophenoxy)acetamide]: the concentration for half-maximal inhibition (IC50) turned out to be 2.01 µM.
`O=C(COc1ccc(F)cc1F)Nc1ccc2ncn(Cc3ccc(Cl)c(Cl)c3)c(=O)c2c1` [XXVIII, N-{3-[(3,4-dichlorophenyl)methyl]-4-oxo(3-hydroquinazolin-6-yl)}-2-(2,4-difluorophenoxy)acetamide] gave an IC50 of 3.43 µM.
Still for that read-out and setting: next, `O=C(COc1cccc(Cl)c1Cl)Nc1ccc2ncn(Cc3ccc(Cl)c(Cl)c3)c(=O)c2c1` [XXX, N-{3-[(3,4-dichlorophenyl)methyl]-4-oxo(3-hydroquinazolin-6-yl)}-2-(2,3-dichlorophenoxy)acetamide]: 3.78 µM; `O=C(COc1ccccc1[N+](=O)[O-])Nc1ccc2ncn(Cc3ccc(Cl)c(Cl)c3)c(=O)c2c1` [XXXI, N-{3-[(3,4-dichlorophenyl)methyl]-4-oxo(3-hydroquinazolin-6-yl)}-2-(2-nitrophenoxy)acetamide]: 15 µM; `O=C(COc1ccc2ccccc2c1)Nc1ccc2ncn(Cc3ccc(Cl)c(Cl)c3)c(=O)c2c1` [XXXII, N-{3-[(3,4-dichlorophenyl)methyl]-4-oxo(3-hydroquinazolin-6-yl)}-2-(2-naphthyloxy)acetamide]: 2.85 µM.
With `O=C(CCOc1ccccc1)Nc1ccc2ncn(Cc3ccc(Cl)c(Cl)c3)c(=O)c2c1` [XXXIII, N-{3-[(3,4-dichlorophenyl)methyl]-4-oxo(3-hydroquinazolin-6-yl)}-3-phenoxypropanamide], the half-maximal inhibitory concentration (IC50) stood at 6.88 µM.
Molecule `CC(Oc1ccccc1Cl)C(=O)Nc1ccc2ncn(Cc3ccc(Cl)c(Cl)c3)c(=O)c2c1` (stereo not shown) [XXXIV, N-{3-[(3,4-dichlorophenyl)methyl]-4-oxo(3-hydroquinazolin-6-yl)}-2-(2-chlorophenoxy)propanamide] showed a half-maximal inhibitory concentration (IC50) of 2.1 µM.
On to `O=C(COc1ccccc1)Nc1ccc2ncn(Cc3ccc(Cl)c(F)c3)c(=O)c2c1` [XXXIX, N-{3-[(4-chloro-3-fluorophenyl)methyl]-4-oxo(3-hydroquinazolin-6-yl)}-2-phenoxyacetamide], for which the IC50 stood at 6.1 µM.
For the molecule `O=C(COc1cccc2nsnc12)Nc1ccc2ncn(Cc3ccc(Cl)c(Cl)c3)c(=O)c2c1` [XXXV, 2-benzo[c]1,2,5-thiadiazol-4-yloxy-N-{3-[(3,4-dichlorophenyl)methyl]-4-oxo(3-hydroquinazolin-6-yl)}acetamide], the IC50 is 21 µM.
Same read-out and setting: next, `O=C(COc1cccnc1)Nc1ccc2ncn(Cc3ccc(Cl)c(Cl)c3)c(=O)c2c1` [XXXVI, N-{3-[(3,4-dichlorophenyl)methyl]-4-oxo(3-hydroquinazolin-6-yl)}-2-(3-pyridyloxy)acetamide]: 3.1 µM; `O=C(CSc1ccncc1)Nc1ccc2ncn(Cc3ccc(Cl)cc3)c(=O)c2c1` [XXXVII, N-{3-[(4-chlorophenyl)methyl]-4-oxo(3-hydroquinazolin-6-yl)}-2-(4-pyridylthio)acetamide]: 7.3 µM; `O=C(COc1ccccc1)Nc1ccc2ncn(Cc3ccc(Br)cc3)c(=O)c2c1` [XXXVIII, N-{3-[(4-bromophenyl)methyl]-4-oxo(3-hydroquinazolin-6-yl)}-2-phenoxyacetamide]: 15 µM.

The same assay, now with this note: Table 2 (Example 21, procedures of Example 20); rat liver microsomes, [3H]stearoyl CoA substrate.
Molecule `CC(=O)OCC(=O)Nc1ccc2ncn(Cc3ccc(F)c(F)c3)c(=O)c2c1` [compound 1, 2-(3-(3,4-difluorobenzyl)-4-oxo-3,4-dihydroquinazolin-6-ylamino)-2-oxoethyl acetate] came in with an IC50 of 2.1 µM.
Regarding `O=C(CO)Nc1ccc2ncn(Cc3ccc(F)c(F)c3)c(=O)c2c1` [compound 2, N-(3-(3,4-difluorobenzyl)-4-oxo-3,4-dihydroquinazolin-6-yl)-2-hydroxyacetamide], 2.4 µM corresponded to half-maximal inhibition (IC50).
For the molecule `CC(=O)OCC(=O)Nc1ccc2ncn(Cc3ccc(Cl)cc3)c(=O)c2c1` [compound 3, 2-(3-(4-chlorobenzyl)-4-oxo-3,4-dihydroquinazolin-6-ylamino)-2-oxoethyl acetate], the IC50 turned out to be 0.94 µM.
`O=C(CO)Nc1ccc2ncn(Cc3ccc(Cl)cc3)c(=O)c2c1` [compound 4, N-(3-(4-chlorobenzyl)-4-oxo-3,4-dihydroquinazolin-6-yl)-2-hydroxyacetamide] yielded an IC50 of 1.2 µM.
`O=C(COc1ccccc1)Nc1ccc2ncn(Cc3ccc(Cl)cc3)c(=O)c2c1` [compound 5, N-(3-(4-chlorobenzyl)-4-oxo-3,4-dihydroquinazolin-6-yl)-2-phenoxyacetamide] returned an IC50 of 8 µM.
Molecule `CC(=O)OCC(=O)Nc1ccc2ncn(Cc3ccc(Cl)c(C(F)(F)F)c3)c(=O)c2c1` [compound 6, 2-(3-(4-chloro-3-(trifluoromethyl)benzyl)-4-oxo-3,4-dihydroquinazolin-6-ylamino)-2-oxoethyl acetate] yielded a 50% inhibitory concentration (IC50) of 0.13 µM.
As for `O=C(CO)Nc1ccc2ncn(Cc3ccc(Cl)c(C(F)(F)F)c3)c(=O)c2c1` [compound 7, N-(3-(4-chloro-3-(trifluoromethyl)benzyl)-4-oxo-3,4-dihydroquinazolin-6-yl)-2-hydroxyacetamide], the 50% inhibitory concentration (IC50) is 0.19 µM.
Still for that read-out and setting: for `Cc1nc2cc(NC(=O)OCc3ccccc3)ccc2c(=O)n1Cc1ccc(Cl)c(Cl)c1` [compound 8, benzyl 3-(3,4-dichlorobenzyl)-2-methyl-4-oxo-3,4-dihydroquinazolin-7-ylcarbamate] the value was 1.2 µM; for `CC(c1ccc(Cl)c(Cl)c1)n1cnc2cc(NC(=O)OCc3ccccc3)ccc2c1=O` (stereo not shown) [compound 9, benzyl 3-(1-(3,4-dichlorophenyl)ethyl)-4-oxo-3,4-dihydroquinazolin-7-ylcarbamate], 0.29 µM; for `CC(=O)OCC(=O)Nc1ccc2c(=O)n(C(C)c3ccc(Cl)c(Cl)c3)cnc2c1` (stereo not shown) [compound 10, 2-(3-(1-(3,4-dichlorophenyl)ethyl)-4-oxo-3,4-dihydroquinazolin-7-ylamino)-2-oxoethyl acetate], 0.13 µM.
The same measure, in the same setting: for `CC(c1ccc(Cl)c(Cl)c1)n1cnc2cc(NC(=O)CO)ccc2c1=O` (stereo not shown) [compound 11, N-(3-(1-(3,4-dichlorophenyl)ethyl)-4-oxo-3,4-dihydroquinazolin-7-yl)-2-hydroxyacetamide] the value was 0.17 µM; for `COc1cccc(Cn2cnc3ccc(NC(=O)OCc4ccccc4)cc3c2=O)c1` [compound 12, benzyl 3-(3-methoxybenzyl)-4-oxo-3,4-dihydroquinazolin-6-ylcarbamate], 1.4 µM.
Still for that read-out and setting: next, `CC(=O)OCC(=O)Nc1ccc2ncn(Cc3ccc(F)c(Cl)c3)c(=O)c2c1` [compound 13, 2-(3-(3-chloro-4-fluorobenzyl)-4-oxo-3,4-dihydroquinazolin-6-ylamino)-2-oxoethyl acetate]: 1.7 µM; `O=C(Nc1ccc2ncn(Cc3ccc(F)c(C(F)(F)F)c3)c(=O)c2c1)OCc1ccccc1` [compound 14, benzyl 3-(4-fluoro-3-(trifluoromethyl)benzyl)-4-oxo-3,4-dihydroquinazolin-6-ylcarbamate]: 0.31 µM.
With `CC(=O)OCC(=O)Nc1ccc2ncn(Cc3ccc(F)c(C(F)(F)F)c3)c(=O)c2c1` [compound 15, 2-(3-(4-fluoro-3-(trifluoromethyl)benzyl)-4-oxo-3,4-dihydroquinazolin-6-ylamino)-2-oxoethyl acetate], inhibition was half-maximal at 0.7 µM (IC50).
On to `O=C(CO)Nc1ccc2ncn(Cc3ccc(F)c(C(F)(F)F)c3)c(=O)c2c1` [compound 16, N-(3-(4-fluoro-3-(trifluoromethyl)benzyl)-4-oxo-3,4-dihydroquinazolin-6-yl)-2-hydroxyacetamide], for which half-maximal inhibition (IC50) required 0.92 µM.

Source of the values: US20090105283A1, “3-HYDROQUINAZOLIN-4-ONE DERIVATIVES FOR USE AS STEAROYL CoA DESATURASE INHIBITORS” (priority 2007, published 2009).
